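Briefly, cells in 96-well plates were exposed to five compound concentrations for 48 h, and endpoints were estimated by linear interpolation. GI50: concentration for 50% inhibition of growth.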 Calls of active or inactive are those of the source. Rule as the data show it: active = GI50 up to about 1.1 µM and inactive = higher.
Legend:
Assay in all cases: DTP human tumour cell line panel, 48 h
ACHN = tested on: ACHN
SN12C = tested on: SN12C
SK-OV-3 = tested on: SK-OV-3
HCC 2998 = tested on: HCC 2998
HOP-62 = tested on: HOP-62
Malme-3M = tested on: Malme-3M
EKVX = tested on: EKVX
HT-29 = tested on: HT-29
RXF 393 = tested on: RXF 393
NCI-H522 = tested on: NCI-H522
HCT-15 = tested on: HCT-15
OVCAR-8 = tested on: OVCAR-8
LXFL 529 = tested on: LXFL 529
SF-268 = tested on: SF-268
NCI-H23 = tested on: NCI-H23
SK-MEL-28 = tested on: SK-MEL-28
U-251 = tested on: U-251

| Compound | GI50 (ACHN) | GI50 (SN12C) | GI50 (SK-OV-3) | GI50 (HCC 2998) | GI50 (HOP-62) | GI50 (Malme-3M) | GI50 (EKVX) | GI50 (HT-29) | GI50 (RXF 393) | GI50 (NCI-H522) | GI50 (HCT-15) [µM] | GI50 (OVCAR-8) | GI50 (LXFL 529) | GI50 (SF-268) | GI50 (NCI-H23) | GI50 (SK-MEL-28) | GI50 (U-251) |
| --- | --- | --- | --- | --- | --- | --- | --- | --- | --- | --- | --- | --- | --- | --- | --- | --- | --- |
| CC#Cc1c(C#CC)c(OC)c2c(c1OC)C(=O)c1ccccc1C2=O | 14.3 µM (inactive) | > 100 µM (inactive) | 34.9 µM (inactive) | > 100 µM (inactive) | 17.3 µM (inactive) | > 100 µM (inactive) | 45.7 µM (inactive) | > 100 µM (inactive) | 10.7 µM (inactive) | 3.15 µM (inactive) | 61.7 | 66.5 µM (inactive) | 54.2 µM (inactive) | 25.7 µM (inactive) | 29.8 µM (inactive) | > 100 µM (inactive) | 21.4 µM (inactive) |
| O=C(Nc1cc(C(F)(F)F)ccc1Cl)C(=O)C(C(=O)c1ccc2ccccc2c1)C1OC(=O)c2ccccc21 (centres undefined) | 17 µM (inactive) | 13 µM (inactive) | 31.3 µM (inactive) | 10.1 µM (inactive) | 6.01 µM (inactive) | 11.6 µM (inactive) | 13.5 µM (inactive) | 13.8 µM (inactive) | 1.2 µM (inactive) | 4.29 µM (inactive) | 6.32 | 5.09 µM (inactive) | 5.11 µM (inactive) | 4.13 µM (inactive) | 5.26 µM (inactive) | 5.13 µM (inactive) | 2 µM (inactive) |
| NNC(=S)N/N=C(/C(=O)Nc1cc(Cl)ccc1Cl)C1C(=O)Nc2ccccc2[S+]1[O-] (centres undefined) | > 100 µM (inactive) | > 100 µM (inactive) | > 100 µM (inactive) | > 100 µM (inactive) | > 100 µM (inactive) | > 100 µM (inactive) | 55.1 µM (inactive) | > 100 µM (inactive) | > 100 µM (inactive) | 68.9 µM (inactive) | > 100 | > 100 µM (inactive) | > 100 µM (inactive) | > 100 µM (inactive) | > 100 µM (inactive) | > 100 µM (inactive) | > 100 µM (inactive) |
| Cc1cccc(C)c1NC(=O)CCCC(=O)C1/C(=N/NC(=O)CC#N)CCC/C1=N\NC(=O)CC#N (centres undefined) | > 100 µM (inactive) | > 100 µM (inactive) | > 100 µM (inactive) | > 100 µM (inactive) | > 100 µM (inactive) | > 100 µM (inactive) | > 100 µM (inactive) | > 100 µM (inactive) |  | > 100 µM (inactive) | > 100 | > 100 µM (inactive) | > 100 µM (inactive) | > 100 µM (inactive) | > 100 µM (inactive) | > 100 µM (inactive) | > 100 µM (inactive) |
| CCCCC/C=C1\CCC(CN(C)C)C1=O (centres undefined) | 13.9 µM (inactive) | 14.7 µM (inactive) | 15 µM (inactive) | 16.9 µM (inactive) | 17.7 µM (inactive) | 14.6 µM (inactive) | 26 µM (inactive) | 28.2 µM (inactive) |  | 4.06 µM (inactive) | 3.17 | > 21.5 µM (inactive) | 1.82 µM (inactive) | 19.1 µM (inactive) | 17.7 µM (inactive) | 9.89 µM (inactive) | 8.2 µM (inactive) |
| CCCCCCCCCCCC(=O)OCCOCCOCCOCCOCCOC(=O)CCCCCCCCCCC | > 100 µM (inactive) | > 100 µM (inactive) | > 100 µM (inactive) | > 100 µM (inactive) | > 100 µM (inactive) | > 100 µM (inactive) | > 100 µM (inactive) | > 100 µM (inactive) | > 100 µM (inactive) | > 100 µM (inactive) | > 100 | > 100 µM (inactive) | > 100 µM (inactive) | > 100 µM (inactive) | > 100 µM (inactive) | > 100 µM (inactive) | > 100 µM (inactive) |
| C/C(CN1C(=O)c2ccccc2C1=O)=N\NS(=O)(=O)c1ccc(F)cc1 | > 100 µM (inactive) | > 100 µM (inactive) | > 100 µM (inactive) | > 100 µM (inactive) | > 100 µM (inactive) | > 100 µM (inactive) | > 100 µM (inactive) | > 100 µM (inactive) |  | > 100 µM (inactive) | > 100 | > 100 µM (inactive) | > 100 µM (inactive) | > 100 µM (inactive) | > 100 µM (inactive) | > 100 µM (inactive) | > 100 µM (inactive) |
| CCOC(=O)Cc1csc(Nc2ccc(OCC)cc2)n1 | > 100 µM (inactive) | > 100 µM (inactive) |  | > 100 µM (inactive) | > 100 µM (inactive) | > 100 µM (inactive) | > 100 µM (inactive) | > 100 µM (inactive) | > 100 µM (inactive) | > 100 µM (inactive) | > 100 | > 100 µM (inactive) | 87.3 µM (inactive) | > 100 µM (inactive) | 50.7 µM (inactive) | > 100 µM (inactive) | > 100 µM (inactive) |
| Cc1c(CCl)c(=O)oc2c(C)c3occ(CCl)c(=O)c3cc12 | > 100 µM (inactive) | 23.4 µM (inactive) | > 100 µM (inactive) | > 100 µM (inactive) | > 100 µM (inactive) | > 100 µM (inactive) | > 100 µM (inactive) |  | 15.7 µM (inactive) | 13.4 µM (inactive) | 25 | > 100 µM (inactive) | 15.2 µM (inactive) | 24.7 µM (inactive) | 31.6 µM (inactive) | 17.5 µM (inactive) | > 100 µM (inactive) |
| CCCCCCCc1cc(OC(=O)c2c(C)cc(OC)cc2O)cc(O)c1C(=O)O | 24.7 µM (inactive) | 26.6 µM (inactive) | 24.5 µM (inactive) | 20.3 µM (inactive) | 18.5 µM (inactive) | 19.8 µM (inactive) | 25.2 µM (inactive) | 32.5 µM (inactive) | 22 µM (inactive) | 23.8 µM (inactive) |  | 27.1 µM (inactive) | 18.2 µM (inactive) | 20.2 µM (inactive) | 20.3 µM (inactive) | 20.1 µM (inactive) | 17.9 µM (inactive) |
| O=C(NCCS(=O)(=O)N1C(=O)C2CCCN2C(=O)[C@@H]1Cc1ccccc1)OCc1ccccc1 (some centres undefined) | 35 µM (inactive) | 52.8 µM (inactive) | > 100 µM (inactive) | 24 µM (inactive) | 99.8 µM (inactive) | 74 µM (inactive) | 40.9 µM (inactive) | 42.8 µM (inactive) | 38 µM (inactive) | 24.7 µM (inactive) | 51.8 | 69.8 µM (inactive) | 34 µM (inactive) | 45.6 µM (inactive) | 67.6 µM (inactive) | 78.3 µM (inactive) | 55.3 µM (inactive) |
| CN(C)CCn1c2ccccc2c2nc3cc4ccccc4cc3nc21 | 2.48 µM (inactive) | 4.61 µM (inactive) | 5.75 µM (inactive) | 5.69 µM (inactive) | 3.07 µM (inactive) | 10 µM (inactive) | 12.6 µM (inactive) | 0.643 µM (active) | 11 µM (inactive) | 5.79 µM (inactive) | 4.81 | 5.9 µM (inactive) | 4.95 µM (inactive) | 2.14 µM (inactive) | 8.91 µM (inactive) | 9.23 µM (inactive) | 6.79 µM (inactive) |
| O=C1CC2C(=O)N(Cc3ccccc3)C1C=C2S(=O)(=O)c1ccccc1 (centres undefined) | > 100 µM (inactive) | > 100 µM (inactive) | > 100 µM (inactive) | > 100 µM (inactive) | > 100 µM (inactive) | > 100 µM (inactive) | > 100 µM (inactive) | > 100 µM (inactive) | > 100 µM (inactive) | > 100 µM (inactive) |  | > 100 µM (inactive) | > 100 µM (inactive) | > 100 µM (inactive) | > 100 µM (inactive) | > 100 µM (inactive) | > 100 µM (inactive) |
| COc1ccc(C2=C3c4cc(OC)c(OC)cc4CCN3C(=S)SS2)cc1OC | 54.8 µM (inactive) | 64.7 µM (inactive) | > 100 µM (inactive) | > 100 µM (inactive) | > 100 µM (inactive) | 24 µM (inactive) | > 100 µM (inactive) | 72.8 µM (inactive) | 92.3 µM (inactive) | 50.1 µM (inactive) | 77.6 | > 100 µM (inactive) | 52.5 µM (inactive) | 72.1 µM (inactive) | 50.7 µM (inactive) | 70.6 µM (inactive) | 61.1 µM (inactive) |
| CN(C)c1c([O-])c(=[N+](C)C)c1=O | > 100 µM (inactive) | > 100 µM (inactive) | > 100 µM (inactive) | > 100 µM (inactive) | > 100 µM (inactive) |  | > 100 µM (inactive) | > 100 µM (inactive) | > 100 µM (inactive) | > 100 µM (inactive) | > 100 | > 100 µM (inactive) | > 100 µM (inactive) | > 100 µM (inactive) | > 100 µM (inactive) | > 100 µM (inactive) | > 100 µM (inactive) |
| CC(C)(C)OC1=C(OC(C)(C)C)C(O)(c2ccc(Cl)cc2)C1=O (centres undefined) | > 100 µM (inactive) | > 100 µM (inactive) | > 100 µM (inactive) | > 100 µM (inactive) |  | > 100 µM (inactive) | > 100 µM (inactive) | > 100 µM (inactive) | > 100 µM (inactive) |  | > 100 | > 100 µM (inactive) | > 100 µM (inactive) | > 100 µM (inactive) | > 100 µM (inactive) | > 100 µM (inactive) | > 100 µM (inactive) |
| O=C1c2ccc(O)cc2C(=O)c2ccc(O)cc21 | 36.9 µM (inactive) | 73.5 µM (inactive) | 33.2 µM (inactive) | 46.3 µM (inactive) | 30.6 µM (inactive) | 57.4 µM (inactive) | 67.3 µM (inactive) | > 100 µM (inactive) | 29.9 µM (inactive) | 32.6 µM (inactive) | 52.5 | > 100 µM (inactive) | 87.3 µM (inactive) | 55.3 µM (inactive) | 59.2 µM (inactive) | 78.5 µM (inactive) | 49.4 µM (inactive) |

Source: ChEMBL document CHEMBL1201862, “PubChem BioAssay data set” (2004)
